Test results from ChEMBL document CHEMBL5550105, “Progress on synthesis and structure-activity relationships of lamellarins over the past decade” (Eur J Med Chem, 2024).
Each block holds one compound with its values, some of them ahead of it.

Tests used:
HeLa = experiment: Cytotoxicity against human HeLa cells assessed as reduction in cell viability measured for 48 hrs by crystal violet staining based analysis; format: functional
DU-145 = experiment: Growth inhibition of human DU-145 cells measured for 72 hrs by SRB assay; format: functional
Acetylcholinesterase = Acetylcholinesterase (Homo sapiens, UniProt P22303); experiment: Inhibition of human recombinant AChE using acetylthiocholine iodide substrate incubated for 5 mins by Ellman's spectrophotometric analysis
[1] = molecular target: ATP-dependent translocase ABCB1 (Homo sapiens, UniProt P08183); experiment: Inhibition of p-glycoprotein (unknown origin) expressed in MDCK-MDR1 cells; format: cell-based
HT-29 = experiment: Growth inhibition of human HT-29 cells measured for 72 hrs by SRB assay; format: functional
MCF7 = experiment: Antiproliferative activity against human MCF7 cells assessed as reduction in cell growth incubated for 48 hrs by MTT assay; format: functional, cell-based; settings: MCF7, 48 h

Chain of ATP-dependent translocase ABCB1 (P08183 whole entry): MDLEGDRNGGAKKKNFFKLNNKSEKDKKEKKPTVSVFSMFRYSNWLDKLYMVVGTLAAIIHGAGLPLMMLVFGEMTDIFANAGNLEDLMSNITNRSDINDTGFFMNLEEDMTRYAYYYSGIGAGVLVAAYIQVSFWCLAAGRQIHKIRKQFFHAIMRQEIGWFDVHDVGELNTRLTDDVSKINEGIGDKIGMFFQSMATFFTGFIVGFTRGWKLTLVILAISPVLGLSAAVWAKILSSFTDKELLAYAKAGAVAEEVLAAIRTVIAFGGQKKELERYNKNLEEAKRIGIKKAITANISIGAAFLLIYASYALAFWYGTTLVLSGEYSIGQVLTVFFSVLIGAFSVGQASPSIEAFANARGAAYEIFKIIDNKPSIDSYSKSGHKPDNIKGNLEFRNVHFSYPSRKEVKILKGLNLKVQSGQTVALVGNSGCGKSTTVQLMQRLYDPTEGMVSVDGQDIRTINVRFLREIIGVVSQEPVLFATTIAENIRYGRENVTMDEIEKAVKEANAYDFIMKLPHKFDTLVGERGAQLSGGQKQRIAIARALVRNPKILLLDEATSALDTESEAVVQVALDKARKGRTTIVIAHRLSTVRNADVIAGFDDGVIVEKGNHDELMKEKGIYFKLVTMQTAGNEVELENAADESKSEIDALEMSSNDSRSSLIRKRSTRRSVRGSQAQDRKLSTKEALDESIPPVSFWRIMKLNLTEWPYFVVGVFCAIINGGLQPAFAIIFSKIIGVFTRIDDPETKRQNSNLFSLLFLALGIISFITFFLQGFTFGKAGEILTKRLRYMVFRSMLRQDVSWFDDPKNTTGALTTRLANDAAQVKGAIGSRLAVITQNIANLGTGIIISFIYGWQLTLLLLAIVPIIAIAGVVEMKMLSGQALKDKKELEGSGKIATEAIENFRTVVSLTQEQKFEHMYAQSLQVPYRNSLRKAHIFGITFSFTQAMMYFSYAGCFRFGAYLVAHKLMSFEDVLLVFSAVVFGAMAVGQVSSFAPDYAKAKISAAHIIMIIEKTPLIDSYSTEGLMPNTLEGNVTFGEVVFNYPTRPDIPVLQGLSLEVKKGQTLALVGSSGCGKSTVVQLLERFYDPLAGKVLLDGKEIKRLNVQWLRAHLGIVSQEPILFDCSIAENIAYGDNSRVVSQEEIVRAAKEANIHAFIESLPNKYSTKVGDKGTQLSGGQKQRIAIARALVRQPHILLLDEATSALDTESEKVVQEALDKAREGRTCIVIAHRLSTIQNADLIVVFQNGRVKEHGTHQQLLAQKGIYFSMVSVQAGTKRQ
Chain of Acetylcholinesterase (P22303 whole entry): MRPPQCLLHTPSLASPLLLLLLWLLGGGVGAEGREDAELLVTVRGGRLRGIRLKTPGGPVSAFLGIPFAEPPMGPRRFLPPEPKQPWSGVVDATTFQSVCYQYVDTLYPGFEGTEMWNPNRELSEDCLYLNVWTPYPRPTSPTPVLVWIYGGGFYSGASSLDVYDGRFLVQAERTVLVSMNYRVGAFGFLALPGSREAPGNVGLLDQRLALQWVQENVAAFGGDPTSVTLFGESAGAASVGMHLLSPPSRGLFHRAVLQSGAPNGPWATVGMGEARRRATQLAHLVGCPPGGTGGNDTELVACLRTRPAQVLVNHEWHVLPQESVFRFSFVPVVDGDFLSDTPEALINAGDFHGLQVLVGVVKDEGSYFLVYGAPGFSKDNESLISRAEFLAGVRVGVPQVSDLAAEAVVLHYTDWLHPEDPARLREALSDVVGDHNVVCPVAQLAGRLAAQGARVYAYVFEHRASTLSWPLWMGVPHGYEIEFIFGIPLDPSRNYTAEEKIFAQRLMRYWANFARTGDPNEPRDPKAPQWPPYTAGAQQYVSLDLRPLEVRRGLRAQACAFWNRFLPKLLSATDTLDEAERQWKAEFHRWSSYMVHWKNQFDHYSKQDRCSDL

Structure (SMILES): COc1cc(-c2c3c4cc(OC)c(O)cc4[nH]c(=O)c3n3ccc4cc(O)c(OC)cc4c23)ccc1O
IC50 (HeLa): 0.317 µM

Structure (SMILES): CCOc1cc2c(cc1OCC)-c1c(-c3ccc(Cl)cc3)c(/C=N/c3ccc(/N=C/c4c(-c5ccc(Cl)cc5)c5n(c4-c4ccccc4)CCc4cc(OC)c(OC)cc4-5)cc3)c(-c3ccccc3)n1CC2
IC50 (Acetylcholinesterase): 4.69 µM

Structure (SMILES): COc1cc(-c2c3c4cc(OC)c(O)cc4oc(=O)c3n3ccc4cc(O)c(OC)cc4c23)ccc1O [LAMELLARIN D]
GI50 (DU-145): 0.0109 µM
GI50 (HT-29): 3 µM

The next lines start with the values.

GI50 (DU-145): 0.0108 µM
Structure (SMILES): COc1cc(-c2c3c4cc(OC)c(OC(=O)[C@H](N)C(C)C)cc4oc(=O)c3n3ccc4cc(OC(=O)[C@@H](N)C(C)C)c(OC)cc4c23)ccc1OC(=O)[C@@H](N)C(C)C

IC50 [1]: 1.01 µM
Structure (SMILES): CCOc1cc2c(cc1OCC)-c1c(-c3ccc(F)cc3)c(/C=N/c3ccc(O)cc3)c(-c3ccccc3)n1CC2

IC50 [1]: 0.19 µM
Structure (SMILES): CCOc1ccc(-c2c(C=O)c(-c3ccco3)n3c2-c2cc(OCC)c(OCC)cc2CC3)cc1OCC

GI50 (HT-29): 1.28 µM
Structure (SMILES): COCCOCCOCC(=O)Oc1ccc(-c2c3c4cc(OC)c(OC(=O)COCCOCCOC)cc4oc(=O)c3n3ccc4cc(O)c(OC)cc4c23)cc1OC

IC50 (MCF7): 6.83 µM
Structure (SMILES): Cc1ccc(-c2nc3c(=O)oc4ccccc4c3c3ccoc23)cc1
